This is an account of results in patent EP1137645B1, “ALPHA-METHYLBENZYL-CONTAINING THIOUREA INHIBITORS OF HERPES VIRUSES CONTAINING A […] GROUP” (Wyeth, priority 1998, dated 2000).

For assay [1], the system named is VZV strain Ellen. The experiment in a line: VZV antiviral (ELISA) assay. Type of assay: cell-based. The protocol:
For the generation of stock VZV to be used in the assay, VZV strain Ellen (ATCC #VR-1367) is used to infect human foreskin fibroblast (HFF) cells at low multiplicity (less than 0.1) and incubated overnight at 37°C in 5% CO2. After the overnight incubation, the mixture of uninfected and VZV-infected HFF infected cells are then harvested and added to each well of 96-well plates (3.5x10^4 cells in 100 µl DMEM supplemented with 2% FBS) which contain test compound or the reference standard drug control (in 100µl DMEM supplemented with 2% FBS per well). These cells are incubated for three days at 37°C in 5% CO2, then fixed for ELISA assay. The primary antibody is murine anti-VZV glycoprotein II monoclonal antibody (Applied Biosystems, Inc. #13-145-100) and the secondary antibody is goat anti-mouse IgG linked to β-galactosidase. Thus the extent of viral replication is determined by assessing β-galactosidase activity by quantifying the generation of the 4-methyl umbelliferone fluorescent cleavage product after addition of the methyl umbelliferyl-β-D-galactoside (Sigma #M1633) substrate on a microfluorimeter (365nm for excitation and 450nm for emission). Antiviral activity (IC50) of the test compound is determined by comparing the flourescence obtained in absence of compound to that obtained in the presence of compound.

Assay [2] concerns HCMV recombinant mutant virus whose genome contains the prokaryotic beta-glucuronidase gene. Nature of the assay: microbe, parasite or virus in culture. Type of assay: cell-based, human cytomegalovirus. As to conditions: for IC50: Human betaherpesvirus 5, Fibroblast. An excerpt: Microtiter plate assay. Ninety-six well plate cultures of human foreskin fibroblasts are infected in the presence of inhibitor compound with a HCMV recombinant mutant virus whose genome contains the prokaryotic beta-glucuronidase gene (Jefferson, R. A., S. M. Burgess, and D. Hirsh. 1986. Beta-glucuronidase from Escherichia coli as a gene fusion marker. Proc. Natl. Acad. Sci. USA 83:8447-8451) whose expression is controlled by a viral promoter. An example of such a virus is RV145 (Jones, T. R., V. P. Muzithras, and Y. Gluzman. 1991. Replacement mutagenesis of the human cytomegalovirus genome: US10 and US11 gene products are nonessential. J. Virol. 65:5860-5872). Since it is under the control of a viral promoter, beta-glucuronidase expression is an indirect indicator of growth and replication of HCMV in this assay. At 96 hours post-infection, the infected cell lysates are prepared (using 50mM sodium phosphate [pH7.0] containing 0.1% Triton X-100 and 0.1% sarkosyl) and assayed for beta-glucuronidase activity using a substrate for the enzyme which when cleaved yields either a product which can be measured colorimetrically in a spectrophotometer or fluorescently in a microfluorimeter. Examples of such substrates are p-nitrophenyl-beta-D-glucuronide and methylumbelliferylglucuronide, respectively. The presence of an antiviral compound is indicated by the reduced expression of the HCMV genome resident beta-glucuronidase gene, compared to the absence of inhibitor. […] Data from this assay generated using varying amounts of inhibitor compound is also used to estimate the IC50 of an inhibitor compound.

Setting [3] is: Human alphaherpesvirus 3, HFF, read-out: IC50 (ug/ml) VZV, VZV strain Ellen, HFF cells, ELISA.
Where [4] appears, read: read-out: IC50 ug/ml HCMV, HCMV, human foreskin fibroblasts.
The mark [5] stands for this setting: Human alphaherpesvirus 3, VZV strain Ellen, HFF cells, ELISA, read-out: IC50 (ug/ml) VZV.

In brackets after ≈: the same amount, converted by molar mass. Like-named read-outs stand apart in the source and are kept apart here. Where only a bound is given, the exact number is not on record here.

On to `O=C(Nc1ccc(NC(=S)Nc2cc(N3CCCC3)cc(C(F)(F)F)c2)cc1)c1ccccc1F` [Example 566, 2-Fluoro-N-{4-[3-(3-pyrrolidin-1-yl-5-trifluoromethyl-phenyl)-thioureido]-phenyl}-benzamide], for which the IC50 is 2 µg/mL (≈ 3.98 µM) in assay [1] (setting [3]) and greater than 0.5 µg/mL in assay [2] (setting [4]). On to `CN(C)c1cc(NC(=S)Nc2ccc(NC(=O)c3ccccc3F)cc2)cc(C(F)(F)F)c1` [Example 567, N-{4-[3-(3-Dimethylamino-5-trifluoromethyl-phenyl)-thioureido]-phenyl}-2-fluoro-benzamide], for which the IC50 is 2 µg/mL (≈ 4.2 µM) in assay [1] (setting [5]) and greater than 0.5 µg/mL in assay [2] (read-out: IC50 ug/ml HCMV). Turning to `O=C(Nc1ccc(NC(=S)Nc2cc(N3CCOCC3)cc(C(F)(F)F)c2)cc1)c1ccccc1F` [Example 568, 2-Fluoro-N-{4-[3-(3-morpholin-4-yl-5-trifluoromethyl-phenyl)-thioureido]-phenyl}-benzamide], the IC50 in assay [1] (setting [3]) is 2.3 µg/mL (≈ 4.44 µM); in assay [2] (setting [4]) it was greater than 0.5 µg/mL. With `CN1CCN(c2cc(NC(=S)Nc3ccc(NC(=O)c4ccccc4F)cc3)cc(C(F)(F)F)c2)CC1` [Example 569, 2-Fluoro-N-(4-{3-[3-(4-methyl-piperazin-1-yl)-5-trifluoromethyl-phenyl]-thioureido}-phenyl)-benzamide], the IC50 is 3 µg/mL (≈ 5.64 µM) in assay [1] (setting [3]) and greater than 0.5 µg/mL in assay [2] (setting [4]). For `O=C(Nc1ccc(NC(=S)Nc2cc(N3CCCCC3)cc(C(F)(F)F)c2)cc1)c1ccccc1F` [Example 570, 2-Fluoro-N-{4-[3-(3-piperidin-1-yl-5-trifluoromethyl-phenyl)-thioureido]-phenyl}-benzamide] the same measures were greater than 10 µg/mL and greater than 0.5 µg/mL. Regarding `O=C(Nc1ccc(NC(=S)NCCc2ccccc2)cc1)c1ccccc1F` [Example 576, 2-Fluoro-N-[4-(3-phenethyl-thioureido)-phenyl]-benzamide], the IC50 in assay [1] (setting [5]) was 8 µg/mL (≈ 20.3 µM); in assay [2] (read-out: IC50 ug/ml HCMV), greater than 0.5 µg/mL. On to `CCC(C)Cc1cc(NC(=S)Nc2ccc(NC(=O)c3ccccc3F)cc2)cc(C(F)(F)F)c1` (centres unmarked) [Example 577, 2-Fluoro-N-(4-{3-[3-(2-methyl-butyl)-5-trifluoromethyl-phenyl]-thioureido}-phenyl)-benzamide], for which the IC50 in assay [1] (setting [3]) is greater than 7.5 µg/mL.

Regarding `CC(C)Cc1cc(NC(=S)Nc2ccc(NC(=O)c3ccccc3F)cc2)cc(C(F)(F)F)c1` [Example 578, 2-Fluoro-N-{4-[3-(3-isobutyl-5-trifluoromethyl-phenyl)-thioureido]-phenyl}-benzamide], in assay [1] (setting [3]), the IC50 was greater than 10 µg/mL. Take `O=C(Nc1ccc(NC(=S)NCc2cc(F)cc(F)c2)cc1)c1ccccc1F` [Example 580, N-{4-[3-(3,5-Difluoro-benzyl)-thioureido]-phenyl}-2-fluoro-benzamide]: the IC50 in assay [1] (setting [5]) was greater than 10 µg/mL.

On to `O=C(Nc1ccc(NC(=S)NCc2cc(Cl)cc(Cl)c2)cc1)c1ccccc1F` [Example 583, N-{4-[3-(3,5-Dichloro-benzyl)-thioureido]-phenyl}-2-fluoro-benzamide], for which the IC50 in assay [1] (setting [3]) amounted to 10 µg/mL (≈ 22.3 µM). For the compound `O=C(Nc1ccc(NC(=S)NCc2cc(F)cc(C(F)(F)F)c2)cc1)c1ccccc1F` [Example 586, 2-Fluoro-N-{4-[3-(3-fluoro-5-trifluoromethyl-benzyl)-thioureido]-phenyl}-benzamide], the IC50 in assay [1] (setting [5]) was greater than 10 µg/mL. On to `CN(C)c1ccc(CNC(=S)Nc2ccc(NC(=O)c3ccccc3F)cc2)cc1C(F)(F)F` [Example 610, N-{4-[3-(4-Dimethylamino-3-trifluoromethyl-benzyl)-thioureido]-phenyl}-2-fluoro-benzamide], for which the IC50 in assay [1] (setting [3]) was greater than 10 µg/mL; in assay [2] (setting [4]), greater than 0.5 µg/mL. Consider `O=C(Nc1ccc(NC(=S)NCc2ccc(N3CCCCC3)c(C(F)(F)F)c2)cc1)c1ccccc1F` [Example 616, 2-Fluoro-N-{4-[3-(4-piperidin-1-yl-3-trifluoromethyl-benzyl)-thioureido]-phenyl}-benzamide], for which, in assay [1] (setting [3]), the IC50 is greater than 10 µg/mL. With `O=C(Nc1ccc(NC(=S)NCc2ccc(F)c(C(F)(F)F)c2)cc1)c1ccccc1F` [Example 623, 2-Fluoro-N-{4-[3-(4-fluoro-3-trifluoromethyl-benzyl)-thioureido]-phenyl}-benzamide], the IC50 in assay [1] (setting [5]) is greater than 10 µg/mL. On to `O=C(Nc1ccc(NC(=S)NCCOc2ccccc2)cc1)c1ccccc1F` [Example 625, 2-Fluoro-N-{4-[3-(2-phenoxy-ethyl)-thioureido]-phenyl}-benzamide], for which the IC50 in assay [1] (setting [5]) was 4 µg/mL (≈ 9.77 µM).

`CC(NC(=S)Nc1ccc(NC(=O)c2ccccc2I)cc1)c1ccc(F)cc1` (centres unmarked) [Example 812, N-(4-{3-[1-(4-Fluoro-phenyl)-ethyl]-thioureido}-phenyl)-2-iodo-benzamide]: the IC50 in assay [1] (setting [5]) turned out to be 3.4 µg/mL (≈ 6.55 µM). On to `CN1CCC(N(C)c2ccc(NC(=S)Nc3ccc(NC(=O)c4ccccc4F)cc3)cc2Cl)CC1` [Example 855, N-[4-(3-{3-Chloro-4-[methyl-(1-methyl-piperidin-4-yl)-amino]-phenyl}-thioureido)-phenyl]-2-fluoro-benzamide], for which the inhibition at 10 µg/mL in assay [1] (Human alphaherpesvirus 3, read-out: % inhibition 10 ug/ml VZV, 10 ug/ml, VZV strain Ellen, HFF cells, ELISA) was found to be 52%. Also, the IC50 in assay [1] (setting [5]) was greater than 10 µg/mL. Further, the “IC50 ug/ml HCMV” value in assay [2] (HCMV, human foreskin fibroblasts) worked out at 0.7 µg/mL (≈ 1.33 µM). Turning to `CC(NC(=S)Nc1ccc(NC(=O)c2cc3ccccc3cn2)cc1)c1ccc(F)cc1` (centres unmarked) [Example 984, Isoquinoline-3-carboxylic acid (4-{3-[1-(4-fluoro-phenyl)-ethyl]-thioureido}-phenyl)-amide], the IC50 came to 0.08 µg/mL (≈ 0.18 µM) in assay [1] (setting [3]) and 1.5 µg/mL (≈ 3.37 µM) in assay [2] (setting [4]). As for `CC(NC(=S)Nc1ccc(NC(=O)c2ccccc2C(F)(F)F)cc1)c1ccc(F)cc1` (centres unmarked) [Example 992, N-(4-{3-[1-(4-Fluoro-phenyl)-ethyl]-thioureido}-phenyl)-2-trifluoromethyl-benzamide], the values for the IC50 in assay [1] (setting [5]) and in assay [2] (read-out: IC50 ug/ml HCMV) were 1.2 µg/mL (≈ 2.6 µM) and 4 µg/mL (≈ 8.67 µM), respectively. Take `CC(NC(=S)Nc1ccc(NC(=O)c2ccccc2C#N)cc1)c1ccc(F)cc1` (centres unmarked) [Example 993, 2-Cyano-N-(4-{3-[1-(4-fluoro-phenyl)-ethyl]-thioureido}-phenyl)-benzamide]: in assay [1] (setting [5]), the IC50 was determined as 2.7 µg/mL (≈ 6.45 µM).

For the compound `C[C@@H](NC(=S)Nc1ccc(NC(=O)c2ccccc2F)cc1)c1ccc(Br)cc1` [Example 1005, N-(4-{3-[(1R)-1-(4-Bromo-phenyl)-ethyl]-thioureido}-phenyl)-2-fluoro-benzamide], the figures for the IC50 in assay [1] (setting [3]) and in assay [2] (setting [4]) were 4.3 µg/mL (≈ 9.1 µM) and 2.1 µg/mL (≈ 4.45 µM), respectively.

Consider `CC(NC(=S)Nc1ccc(NC(=O)c2ccccc2F)cc1)c1ccc(Br)cc1` (centres unmarked) [Example 1102, N-(4-{3-[1-(4-Bromo-phenyl)-ethyl]-thioureido}-phenyl)-2-fluoro-benzamide], for which the IC50 in assay [1] (setting [3]) is 0.2 µg/mL (≈ 0.423 µM); in assay [2] (setting [4]), 1.7 µg/mL (≈ 3.6 µM). Regarding `C[C@H](NC(=S)Nc1ccc(NC(=O)c2ccc(F)cc2)cc1)c1ccc(Br)cc1` [Example 1103, N-(4-{3-[(1S)-1-(4-Bromo-phenyl)-ethyl]-thioureido}-phenyl)-4-fluoro-benzamide], the IC50 in assay [1] (setting [3]) was determined as 0.47 µg/mL (≈ 0.995 µM); in assay [2] (setting [4]), 3.4 µg/mL (≈ 7.2 µM). On to `COc1ccccc1C(=O)Nc1ccc(NC(=S)N[C@@H](C)c2ccc(Br)cc2)cc1` [Example 1104, N-(4-{3-[(1S)-1-(4-Bromo-phenyl)-ethyl]-thioureido}-phenyl)-2-methoxy-benzamide], for which the values for the IC50 in assay [1] (setting [3]) and in assay [2] (setting [4]) were 0.09 µg/mL (≈ 0.186 µM) and 4.9 µg/mL (≈ 10.1 µM), respectively.

Consider `COc1ccccc1C(=O)Nc1ccc(NC(=S)N[C@H](C)c2ccc(Br)cc2)cc1` [Example 1105, N-(4-{3-[(1R)-1-(4-Bromo-phenyl)-ethyl]-thioureido}-phenyl)-2-methoxy-benzamide], for which the values for the IC50 in assay [1] (setting [3]) and in assay [2] (setting [4]) were greater than 7.5 µg/mL and 2.5 µg/mL (≈ 5.16 µM), respectively.
